One experiment deals with T1, HiBit-BRM fusion protein (Homo sapiens, UniProt P51531).
T1 construct: expressed in transfected cells
Nature of the experiment: HiBiT-BRM cell-based degradation assay (Nano-Glo HiBiT lytic detection, 24 h). The following applies: HeLa cell line expressing HiBiT-BRM; for DC50: read-out: BRM HiBit Degradation IC50. The gist of the method:
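Stable HeLa HiBiT-BRM cells treated 24 h with compounds (10-point 3-fold dilutions, 30 μM final top dose, duplicate). HiBiT levels read by Nano-Glo lytic luminescence; % degradation normalised to DMSO (high control) and 2 μM reference BRM/BRG1 degrader (low control).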
Background: The HiBiT peptide binds its large partner to form an active luciferase.

The target of experiment [1] is T2, HiBit-BRG1 fusion protein (Homo sapiens, UniProt P51532).
T2 construct: expressed in transfected cells
Briefly: HiBiT-BRG1 cell-based degradation assay (Nano-Glo HiBiT lytic detection, 24 h). The settings on record: HeLa cell line expressing HiBit-BRG1 and LgBit; for Dmax: read-out: BRG1 HiBit Degradation Maximum (%); for DC50: read-out: BRMG1 HiBit Degradation IC50. The gist of the method: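 HeLa cells stably expressing HiBiT-BRG1 and LgBiT, 5000 per well, compound-treated 24 h, equilibrated 15 min at room temperature, then lysed with LgBiT-containing Nano-Glo HiBiT lytic reagent and luminescence read. % degradation normalised between DMSO (high control) and 2 μM reference BRM/BRG1 degrader (low control).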

Structures are written as SMILES.

T2 sequence (P51532 whole entry, the tested form may be a part): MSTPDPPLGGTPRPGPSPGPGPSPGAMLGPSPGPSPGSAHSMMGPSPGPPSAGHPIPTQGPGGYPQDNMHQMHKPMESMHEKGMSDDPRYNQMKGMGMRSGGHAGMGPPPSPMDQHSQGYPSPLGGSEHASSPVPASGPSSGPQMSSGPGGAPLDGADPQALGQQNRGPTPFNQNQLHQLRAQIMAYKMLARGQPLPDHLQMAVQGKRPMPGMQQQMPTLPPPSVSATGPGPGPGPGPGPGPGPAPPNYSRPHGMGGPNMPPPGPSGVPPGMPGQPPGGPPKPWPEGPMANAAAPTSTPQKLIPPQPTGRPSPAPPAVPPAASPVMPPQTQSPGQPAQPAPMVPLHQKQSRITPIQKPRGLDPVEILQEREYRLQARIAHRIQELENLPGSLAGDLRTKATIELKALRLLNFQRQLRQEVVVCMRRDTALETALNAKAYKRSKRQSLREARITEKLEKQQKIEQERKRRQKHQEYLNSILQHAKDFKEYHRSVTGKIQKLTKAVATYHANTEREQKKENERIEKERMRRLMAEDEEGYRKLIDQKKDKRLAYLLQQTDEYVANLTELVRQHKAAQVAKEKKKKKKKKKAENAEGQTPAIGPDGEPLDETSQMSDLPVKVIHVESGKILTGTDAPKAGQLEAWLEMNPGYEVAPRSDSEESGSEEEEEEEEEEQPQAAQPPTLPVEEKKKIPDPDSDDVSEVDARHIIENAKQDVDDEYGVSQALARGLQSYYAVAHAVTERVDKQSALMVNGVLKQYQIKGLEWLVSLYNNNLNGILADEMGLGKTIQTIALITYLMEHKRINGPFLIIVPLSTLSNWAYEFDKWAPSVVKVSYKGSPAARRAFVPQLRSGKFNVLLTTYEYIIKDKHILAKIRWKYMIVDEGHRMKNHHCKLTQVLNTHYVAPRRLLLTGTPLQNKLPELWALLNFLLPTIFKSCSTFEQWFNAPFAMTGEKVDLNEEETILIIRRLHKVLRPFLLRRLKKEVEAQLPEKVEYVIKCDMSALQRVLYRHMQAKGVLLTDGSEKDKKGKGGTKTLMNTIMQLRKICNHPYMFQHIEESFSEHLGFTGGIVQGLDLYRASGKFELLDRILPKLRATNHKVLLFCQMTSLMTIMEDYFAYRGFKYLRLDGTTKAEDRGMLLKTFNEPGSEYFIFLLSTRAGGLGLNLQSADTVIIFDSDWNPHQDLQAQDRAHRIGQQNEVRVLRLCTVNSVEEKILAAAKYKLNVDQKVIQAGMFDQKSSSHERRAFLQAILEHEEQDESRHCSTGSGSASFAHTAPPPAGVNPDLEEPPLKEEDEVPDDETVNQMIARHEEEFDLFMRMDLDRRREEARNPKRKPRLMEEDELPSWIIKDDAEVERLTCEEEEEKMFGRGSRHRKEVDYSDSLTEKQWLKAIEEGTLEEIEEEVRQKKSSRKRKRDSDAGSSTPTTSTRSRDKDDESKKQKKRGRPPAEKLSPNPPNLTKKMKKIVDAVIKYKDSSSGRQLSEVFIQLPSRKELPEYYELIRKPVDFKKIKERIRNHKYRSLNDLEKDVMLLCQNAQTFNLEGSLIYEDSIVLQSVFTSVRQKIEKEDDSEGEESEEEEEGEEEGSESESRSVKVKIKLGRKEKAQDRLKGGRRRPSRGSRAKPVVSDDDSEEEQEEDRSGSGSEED
T1 sequence (P51531 whole entry, the tested form may be a part): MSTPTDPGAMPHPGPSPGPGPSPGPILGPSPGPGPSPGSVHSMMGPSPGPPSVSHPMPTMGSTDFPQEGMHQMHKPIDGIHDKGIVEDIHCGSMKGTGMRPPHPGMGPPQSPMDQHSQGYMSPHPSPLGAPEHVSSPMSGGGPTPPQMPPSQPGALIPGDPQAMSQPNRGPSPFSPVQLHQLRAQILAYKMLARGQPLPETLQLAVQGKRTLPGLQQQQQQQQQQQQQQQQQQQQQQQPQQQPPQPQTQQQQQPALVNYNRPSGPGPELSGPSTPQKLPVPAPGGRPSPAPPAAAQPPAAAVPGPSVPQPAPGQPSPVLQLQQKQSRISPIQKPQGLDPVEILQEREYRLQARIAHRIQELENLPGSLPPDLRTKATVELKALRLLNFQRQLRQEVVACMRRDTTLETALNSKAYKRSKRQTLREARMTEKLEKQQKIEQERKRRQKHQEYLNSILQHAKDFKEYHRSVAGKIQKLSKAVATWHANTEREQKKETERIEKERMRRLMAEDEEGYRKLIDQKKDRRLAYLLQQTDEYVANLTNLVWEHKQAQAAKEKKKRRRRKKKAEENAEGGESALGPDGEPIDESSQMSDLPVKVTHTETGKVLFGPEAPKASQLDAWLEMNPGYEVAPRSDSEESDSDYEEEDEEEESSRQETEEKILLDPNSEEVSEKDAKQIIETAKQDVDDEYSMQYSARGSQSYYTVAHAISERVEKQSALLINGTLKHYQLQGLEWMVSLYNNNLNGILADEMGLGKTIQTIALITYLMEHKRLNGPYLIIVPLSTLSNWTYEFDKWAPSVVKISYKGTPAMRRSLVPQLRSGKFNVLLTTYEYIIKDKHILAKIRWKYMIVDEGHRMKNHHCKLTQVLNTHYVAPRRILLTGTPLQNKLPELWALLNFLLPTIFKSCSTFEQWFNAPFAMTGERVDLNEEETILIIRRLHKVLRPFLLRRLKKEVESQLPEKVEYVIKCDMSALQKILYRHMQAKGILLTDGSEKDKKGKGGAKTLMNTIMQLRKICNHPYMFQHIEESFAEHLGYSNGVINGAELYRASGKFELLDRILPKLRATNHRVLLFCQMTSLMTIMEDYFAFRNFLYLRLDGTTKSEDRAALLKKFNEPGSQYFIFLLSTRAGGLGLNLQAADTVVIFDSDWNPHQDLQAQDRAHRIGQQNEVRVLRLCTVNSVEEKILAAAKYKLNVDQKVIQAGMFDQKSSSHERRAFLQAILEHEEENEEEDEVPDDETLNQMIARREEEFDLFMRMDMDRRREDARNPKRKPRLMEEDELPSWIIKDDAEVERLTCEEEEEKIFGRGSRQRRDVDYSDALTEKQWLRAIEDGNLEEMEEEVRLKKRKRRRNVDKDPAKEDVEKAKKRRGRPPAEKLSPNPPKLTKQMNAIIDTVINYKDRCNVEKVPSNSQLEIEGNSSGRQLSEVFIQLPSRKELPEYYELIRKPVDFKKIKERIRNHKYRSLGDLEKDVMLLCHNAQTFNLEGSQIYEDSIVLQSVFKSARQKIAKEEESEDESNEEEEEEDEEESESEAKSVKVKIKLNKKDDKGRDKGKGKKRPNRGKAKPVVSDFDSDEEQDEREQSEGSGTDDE

Turning to `Cc1ncsc1-c1ccc([C@H](C)NC(=O)[C@@H]2C[C@@H](O)CN2C(=O)[C@H](c2cc(-c3cnc(N4CCN(c5cc6nnc(-c7ccccc7O)cc6n5C)CC4)nc3)no2)C(C)C)cc1` [Compound 29, (2S,4R)-4-hydroxy-1-[(2S)-2-[3-(2-{4-[3-(2-hydroxyphenyl)-5-methylpyrrolo[3,2-c]pyridazin-6-yl]piperazin-1-yl}pyrimidin-5-yl)-1,2-oxazol-5-yl]-3-methylbutanoyl]-N-[(1S)-1-[4-(4-methyl-1,3-thiazol-5-yl)phenyl]ethyl]pyrrolidine-2-carboxamide], on HiBit-BRM fusion protein, the “BRM HiBit Degradation Maximum (%)” value is “A (“A” indicates maximum degradation ≥75%)” and the DC50 was > 10 nM. Also, the Dmax in experiment [1] was < 50%.
As to `Cc1ncsc1-c1ccc([C@H](C)NC(=O)[C@@H]2C[C@@H](O)CN2C(=O)[C@@H](c2cc(N3CCC(N4CC(c5cc6nnc(-c7ccccc7O)cc6n5C)C4)CC3)no2)C(C)C)cc1` [Compound 12, (2S,4R)-4-hydroxy-1-((R)-2-(3-(4-(3-(3-(2-hydroxyphenyl)-5-methyl-5H-pyrrolo[3,2-c]pyridazin-6-yl)azetidin-1-yl)piperidin-1-yl)isoxazol-5-yl)-3-methylbutanoyl)-N-((S)-1-(4-(4-methylthiazol-5-yl)phenyl)ethyl)pyrrolidine-2-carboxamide], on HiBit-BRM fusion protein, the “BRM HiBit Degradation Maximum (%)” value was “A (“A” indicates maximum degradation ≥75%)” and the DC50 was < 10 nM. In experiment [1], the Dmax is > 75% and the DC50 is > 10 nM.
On to `C#Cc1ccc([C@H](C)NC(=O)[C@@H]2C[C@@H](O)CN2C(=O)C(c2cc(N3CC4(CC(c5cc6nnc(-c7ccccc7O)cc6n5C5CCC5)C4)C3)no2)C(C)C)cc1` (stereo partly drawn) [Compound 60, (2S,4R)-1-(2-(3-(6-(5-cyclobutyl-3-(2-hydroxyphenyl)-5H-pyrrolo[3,2-c]pyridazin-6-yl)-2-azaspiro[3.3]heptan-2-yl)isoxazol-5-yl)-3-methylbutanoyl)-N-((S)-1-(4-ethynylphenyl)ethyl)-4-hydroxypyrrolidine-2-carboxamide], for which, at HiBit-BRM fusion protein, the “BRM HiBit Degradation Maximum (%)” value is recorded as “A (“A” indicates maximum degradation ≥75%)” and the DC50 was < 10 nM. In addition, in experiment [1], the Dmax was < 50%.
Turning to `Cc1ncsc1-c1ccc([C@H](C)NC(=O)[C@@H]2C[C@@H](O)CN2C(=O)[C@@H](c2cc(-c3cnc(N4CC[C@H](c5cc6nnc(-c7cccc(F)c7O)cc6n5C5CC5)C4)nc3)no2)C(C)C)cc1` [Compound 109, (2S,4R)-1-((R)-2-(3-(2-((S)-3-(5-cyclopropyl-3-(3-fluoro-2-hydroxyphenyl)-5H-pyrrolo[3,2-c]pyridazin-6-yl)pyrrolidin-1-yl)pyrimidin-5-yl)isoxazol-5-yl)-3-methylbutanoyl)-4-hydroxy-N-((S)-1-(4-(4-methylthiazol-5-yl)phenyl)ethyl)pyrrolidine-2-carboxamide], at HiBit-BRM fusion protein, the “BRM HiBit Degradation Maximum (%)” value was “A (“A” indicates maximum degradation ≥75%)” and the DC50 was < 10 nM. The Dmax in experiment [1] is < 50%.
On to `Cc1ncsc1-c1ccc([C@H](C)NC(=O)[C@@H]2C[C@@H](O)CN2C(=O)[C@@H](c2cc(-c3cnc(N4CCN(c5cc6nnc(-c7ccccc7O)cc6n5C)CC4)nc3)no2)C(C)C)cc1` [Compound 28, (2S,4R)-4-hydroxy-1-[(2R)-2-[3-(2-{4-[3-(2-hydroxyphenyl)-5-methylpyrrolo[3,2-c]pyridazin-6-yl]piperazin-1-yl}pyrimidin-5-yl)-1,2-oxazol-5-yl]-3-methylbutanoyl]-N-[(1S)-1-[4-(4-methyl-1,3-thiazol-5-yl)phenyl]ethyl]pyrrolidine-2-carboxamide], for which, at HiBit-BRM fusion protein, the “BRM HiBit Degradation Maximum (%)” value was “A (“A” indicates maximum degradation ≥75%)” and the DC50 is < 10 nM. Further, in experiment [1], the Dmax is > 75% and the DC50 was < 10 nM.
Take `Cc1ncsc1-c1ccc(CNC(=O)[C@@H]2C[C@@H](O)CN2C(=O)[C@@H](c2cc(N3CC4(CC(c5cc6nnc(-c7ccccc7O)cc6n5C5CCC5)C4)C3)no2)C(C)C)cc1` [Compound 48, (2S,4R)-1-((R)-2-(3-(6-(5-cyclobutyl-3-(2-hydroxyphenyl)-5H-pyrrolo[3,2-c]pyridazin-6-yl)-2-azaspiro[3.3]heptan-2-yl)isoxazol-5-yl)-3-methylbutanoyl)-4-hydroxy-N-(4-(4-methylthiazol-5-yl)benzyl)pyrrolidine-2-carboxamide]: on HiBit-BRM fusion protein, the “BRM HiBit Degradation Maximum (%)” value is listed as “A (“A” indicates maximum degradation ≥75%)” and the DC50 is > 10 nM. For the same compound, in experiment [1], the Dmax was < 50%.
As for `Cc1ncsc1-c1ccc([C@H](C)NC(=O)[C@@H]2C[C@@H](O)CN2C(=O)[C@@H](c2cc(-c3ccnc(N4CC[C@@H](c5cc6nnc(-c7ccccc7O)cc6n5C5CC5)C4)c3)no2)C(C)C)cc1` [Compound 82, (2S,4R)-1-[(2R)-2-(3-{2-[(3R)-3-[5-cyclopropyl-3-(2-hydroxyphenyl)pyrrolo [3,2-c]pyridazin-6-yl]pyrrolidin-1-yl]pyridin-4-yl}-1,2-oxazol-5-yl)-3-methylbutanoyl]-4-hydroxy-N-[(1S)-1-[4-(4-methyl-1,3-thiazol-5-yl)phenyl]ethyl]pyrrolidine-2-carboxamide], on HiBit-BRM fusion protein, the “BRM HiBit Degradation Maximum (%)” value is given as “A (“A” indicates maximum degradation ≥75%)” and the DC50 is < 10 nM. In addition, in experiment [1], the Dmax is > 50% and the DC50 was > 10 nM.
For the compound `Cc1ncsc1-c1ccc([C@H](C)NC(=O)[C@@H]2C[C@@H](O)CN2C(=O)[C@@H](c2cc(OCCN3CC(c4cc5nnc(-c6ccccc6O)cc5n4C(F)F)C3)no2)C(C)C)cc1` [Compound 14, (2S,4R)-1-((R)-2-(3-(2-(3-(5-(difluoromethyl)-3-(2-hydroxyphenyl)-5H-pyrrolo[3,2-c]pyridazin-6-yl)azetidin-1-yl)ethoxy)isoxazol-5-yl)-3-methylbutanoyl)-4-hydroxy-N—((S)-1-(4-(4-methylthiazol-5-yl)phenyl)ethyl)pyrrolidine-2-carboxamide], at HiBit-BRM fusion protein, the “BRM HiBit Degradation Maximum (%)” value was “A (“A” indicates maximum degradation ≥75%)” and the DC50 is > 10 nM. In experiment [1], the Dmax is > 50% and the DC50 was > 10 nM.
Consider `CC(C)C(C(=O)N1C[C@H](O)C[C@H]1C(=O)NC1CC1)c1cc(N2CC3(CC(c4cc5nnc(-c6ccccc6O)cc5n4C4CCC4)C3)C2)no1` (stereo partly drawn) [Compound 56, (2S,4R)-1-(2-(3-(6-(5-cyclobutyl-3-(2-hydroxyphenyl)-5H-pyrrolo[3,2-c]pyridazin-6-yl)-2-azaspiro[3.3]heptan-2-yl)isoxazol-5-yl)-3-methylbutanoyl)-N-cyclopropyl-4-hydroxypyrrolidine-2-carboxamide], for which, on HiBit-BRM fusion protein, the “BRM HiBit Degradation Maximum (%)” value is listed as “A (“A” indicates maximum degradation ≥75%)” and the DC50 is > 10 nM. The Dmax in experiment [1] was < 50%.
Take `Cc1ncsc1-c1ccc([C@H](C)NC(=O)[C@@H]2C[C@@H](O)CN2C(=O)[C@@H](c2cc(N3CCC4(CC[C@@H](c5cc6nnc(-c7ccccc7O)cc6n5C5CC5)C4)CC3)no2)C(C)C)cc1` [Compound 97, (2S,4R)-1-((R)-2-(3-((R)-2-(5-cyclopropyl-3-(2-hydroxyphenyl)-5H-pyrrolo[3,2-c]pyridazin-6-yl)-8-azaspiro[4.5]decan-8-yl)isoxazol-5-yl)-3-methylbutanoyl)-4-hydroxy-N-((S)-1-(4-(4-methylthiazol-5-yl)phenyl)ethyl)pyrrolidine-2-carboxamide]: at HiBit-BRM fusion protein, the “BRM HiBit Degradation Maximum (%)” value is “A (“A” indicates maximum degradation ≥75%)” and the DC50 was < 10 nM. Further, in experiment [1], the Dmax is < 50%.
As to `Cc1ncsc1-c1ccc([C@H](C)NC(=O)[C@@H]2C[C@@H](O)CN2C(=O)[C@@H](c2cc(N3CCC(C(=O)N4CC(c5cc6nnc(-c7ccccc7O)cc6n5C)C4)CC3)no2)C(C)C)cc1` [Compound 13, (2S,4R)-4-hydroxy-1-[(2R)-2-[3-(4-{3-[3-(2-hydroxyphenyl)-5-methylpyrrolo[3,2-c]pyridazin-6-yl]azetidine-1-carbonyl}piperidin-1-yl)-1,2-oxazol-5-yl]-3-methylbutanoyl]-N-[(1S)-1-[4-(4-methyl-1,3-thiazol-5-yl)phenyl]ethyl]pyrrolidine-2-carboxamide], on HiBit-BRM fusion protein, the “BRM HiBit Degradation Maximum (%)” value is recorded as “A (“A” indicates maximum degradation ≥75%)” and the DC50 is < 10 nM. For the same compound, in experiment [1], the Dmax was > 50% and the DC50 is > 100 nM.
Regarding `Cc1ncsc1-c1ccc([C@H](C)NC(=O)[C@@H]2C[C@@H](O)CN2C(=O)[C@@H](c2cc(N3CC4(CC(c5cc6nnc(-c7ccccc7O)cc6n5CC5CC5)C4)C3)no2)C(C)C)cc1` [Compound 77, (2S,4R)-1-((R)-2-(3-(6-(5-(cyclopropylmethyl)-3-(2-hydroxyphenyl)-5H-pyrrolo[3,2-c]pyridazin-6-yl)-2-azaspiro[3.3]heptan-2-yl)isoxazol-5-yl)-3-methylbutanoyl)-4-hydroxy-N-((S)-1-(4-(4-methylthiazol-5-yl)phenyl)ethyl)pyrrolidine-2-carboxamide], at HiBit-BRM fusion protein, the “BRM HiBit Degradation Maximum (%)” value is “A (“A” indicates maximum degradation ≥75%)” and the DC50 is < 10 nM. In experiment [1], the Dmax was < 50%.

The record behind these values is patent US20250302832A1, “PYRAZINE DERIVATIVES AND USES THEREOF” (FOGHORN THERAPEUTICS INC., priority 2022, published 2025).
